Assay results from patent US7838553B2, “Benzopyran derivatives as potassium channel openers” (Janssen Pharmaceutica NV, priority 2005, dated 2010).

What follows are compounds tested against T1, KATP channels (Homo sapiens, UniProt O60706+Q14654) (assay: Potassium Channel Assay (FLIPR membrane potential)). Conditions: TE671 human medulloblastoma cells, Membrane Potential Assay Dye, room temperature, hyperpolarization from KATP channel opening.
T1 construct: TE671 human medulloblastoma cells were obtained from ATCC; host or cells: TE671 human medulloblastoma cells
Assay type: cell-based
Description: TE671 human medulloblastoma cells were obtained from ATCC and grown in Dulbecco's modified Eagle's medium (DMEM) supplemented with 10% fetal bovine serum, 100 U/ml penicillin and […].
The day before testing, the cells were plated in black 96-well plates at 50 K/well. On the day of testing, the growth media was removed, then 100 μl of FLIPR buffer (20 mM HEPES, 120 mM NaCl, 2 mM KCl, 2 mM CaCl2, 1 mM MgCl2, 5 mM Glucose) and 100 μl of Membrane Potential Assay Dye (Molecular Devices) dissolved in FLIPR buffer were added to each well. The cells were incubated at room temperature for 15 to 30 min.
The effect of test compounds on KATP channels were evaluated on a fluorometric imaging plate reader (FLIPR, Molecular Devices) at room temperature. After a baseline period, 50 μl of 5× stock solution of test compound prepared in FLIPR buffer was added and fluorescent change was monitored for 3 minutes. After this reading, glyburide, a KATP channel blocker, was added to a final concentration of 5 μM to check the specificity of the test compound as a KATP channel openers. Hyperpolarization resulting from KATP channel opening was observed as a decrease in fluorescent intensity.
Representative compounds of the present invention were tested according to the procedure described above, with results as listed in Table 7, below.

T1 sequence (O60706 1-1549 isoform O60706-2): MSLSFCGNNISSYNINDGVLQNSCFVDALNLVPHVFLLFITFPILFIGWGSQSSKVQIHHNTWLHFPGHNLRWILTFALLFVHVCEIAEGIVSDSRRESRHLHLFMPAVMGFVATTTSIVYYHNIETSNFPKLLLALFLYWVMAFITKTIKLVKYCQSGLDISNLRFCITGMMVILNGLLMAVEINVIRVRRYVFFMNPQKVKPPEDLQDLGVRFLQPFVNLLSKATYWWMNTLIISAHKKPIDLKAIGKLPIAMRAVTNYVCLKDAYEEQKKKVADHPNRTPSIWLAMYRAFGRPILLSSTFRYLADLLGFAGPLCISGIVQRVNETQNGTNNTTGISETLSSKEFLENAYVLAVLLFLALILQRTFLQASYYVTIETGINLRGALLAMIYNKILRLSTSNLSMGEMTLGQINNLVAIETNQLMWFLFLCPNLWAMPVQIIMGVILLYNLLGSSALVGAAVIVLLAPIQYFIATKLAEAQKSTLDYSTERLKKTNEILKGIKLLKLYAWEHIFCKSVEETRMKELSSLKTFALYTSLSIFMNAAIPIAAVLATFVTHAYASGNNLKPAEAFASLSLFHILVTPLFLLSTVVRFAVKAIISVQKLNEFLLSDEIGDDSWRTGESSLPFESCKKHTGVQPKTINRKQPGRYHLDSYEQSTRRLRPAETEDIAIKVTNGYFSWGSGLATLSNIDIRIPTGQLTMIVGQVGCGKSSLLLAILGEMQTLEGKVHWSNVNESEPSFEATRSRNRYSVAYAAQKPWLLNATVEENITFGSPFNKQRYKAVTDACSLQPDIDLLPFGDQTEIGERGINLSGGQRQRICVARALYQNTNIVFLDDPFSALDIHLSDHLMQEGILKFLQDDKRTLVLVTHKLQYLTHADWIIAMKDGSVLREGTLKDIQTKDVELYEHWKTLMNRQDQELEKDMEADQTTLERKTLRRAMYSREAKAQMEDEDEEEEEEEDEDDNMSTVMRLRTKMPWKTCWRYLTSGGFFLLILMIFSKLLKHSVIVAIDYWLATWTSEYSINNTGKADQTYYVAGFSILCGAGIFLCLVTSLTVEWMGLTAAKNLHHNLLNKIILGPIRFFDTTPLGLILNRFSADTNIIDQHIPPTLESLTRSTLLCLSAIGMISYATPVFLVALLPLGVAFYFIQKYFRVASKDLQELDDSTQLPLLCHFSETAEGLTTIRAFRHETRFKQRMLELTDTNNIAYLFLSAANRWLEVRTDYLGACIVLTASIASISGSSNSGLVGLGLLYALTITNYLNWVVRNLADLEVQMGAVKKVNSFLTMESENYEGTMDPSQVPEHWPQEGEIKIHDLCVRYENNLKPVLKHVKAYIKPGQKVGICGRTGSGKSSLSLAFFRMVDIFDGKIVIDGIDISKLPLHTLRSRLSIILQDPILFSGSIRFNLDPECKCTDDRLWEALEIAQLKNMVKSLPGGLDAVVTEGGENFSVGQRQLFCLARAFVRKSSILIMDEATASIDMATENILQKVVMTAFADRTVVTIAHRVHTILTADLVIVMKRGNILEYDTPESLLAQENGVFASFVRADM
T1 sequence (Q14654 whole entry): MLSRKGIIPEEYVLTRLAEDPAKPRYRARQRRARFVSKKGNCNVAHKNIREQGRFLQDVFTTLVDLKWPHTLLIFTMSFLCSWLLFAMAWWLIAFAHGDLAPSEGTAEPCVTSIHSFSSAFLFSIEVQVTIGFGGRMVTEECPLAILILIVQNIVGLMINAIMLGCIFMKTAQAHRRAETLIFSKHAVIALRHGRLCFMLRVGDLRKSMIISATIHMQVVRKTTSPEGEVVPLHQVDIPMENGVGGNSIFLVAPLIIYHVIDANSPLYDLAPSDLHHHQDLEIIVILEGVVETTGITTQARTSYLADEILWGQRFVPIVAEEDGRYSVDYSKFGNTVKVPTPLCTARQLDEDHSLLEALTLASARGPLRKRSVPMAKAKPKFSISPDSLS

| SMILES | EC50 |
| --- | --- |
| CC1(C)Oc2ccncc2[C@@H](n2c(=O)ccn2-c2ccc(Cl)cc2)[C@@H]1O (racemic) [Compound 110, 1-(4-Chloro-phenyl)-2-(3-hydroxy-2,2-dimethyl-3,4-dihydro-2H-pyrano[32-c]pyridin-4-yl)-1,2-dihydro-pyrazol-3-one] | > 30 µM |
| CC1(C)Oc2ccc(C#N)cc2[C@@H](Sc2ncc[nH]2)[C@@H]1O [Compound 25, (3S,4R)-3-Hydroxy-4-(2H-imidazol-2-ylsulfanyl)-2,2-dimethyl-chroman-6-carbonitrile] | 0.84 µM |
| CC1(C)Oc2ccc(S(=O)(=O)c3ccccc3)cc2[C@@H](Oc2noc3ccc(Cl)cc23)[C@@H]1O [Compound 75, (3S,4R)-6-Benzenesulfonyl-4R-(5-chloro-benzo[d]isoxazol-3-yloxy)-2,2-dimethyl-chroman-3S-ol] | > 30 µM |
